What was measured:
[1] = system: Aorta rings without endothelium; assay: NO donor activity in vitro: relaxation of noradrenaline-contracted aorta rings; assay type: cell-based; details: stable contraction induced by noradrenaline (0.1-0.3 μM), read-out: IC50 (dose that inhibits the maximum effect by 50%), relaxing effect
Method: Aorta rings without endothelium are used. After a first contraction induced by 60 mM KCl to characterise the sensitivity of the ring, and washing, a stable contraction is induced by noradrenaline (0.1-0.3 μM) in the presence or absence of a guanylate cyclase inhibitor, ODQ (10 μM). A cumulative concentration series is applied and the activity of the product under test is calculated by an IC50 (dose that inhibits the maximum effect by 50%).

[2] = target: T1, Angiotensin 1-Converting Enzyme (Rattus norvegicus, UniProt P47820); assay: Activity inhibiting angiotensin 1-converting enzyme in vivo: hypertensive response to angiotensin I in anaesthetised rats; details: dose of 0.1 mg/kg, given 60 minutes prior to anaesthesia, angiotensin I i.v. 1.5 μg/kg
T1 construct: from tissue; host or cells: whole living rat (in vivo; endogenous enzyme)
T1 sequence (P47820 36-1313): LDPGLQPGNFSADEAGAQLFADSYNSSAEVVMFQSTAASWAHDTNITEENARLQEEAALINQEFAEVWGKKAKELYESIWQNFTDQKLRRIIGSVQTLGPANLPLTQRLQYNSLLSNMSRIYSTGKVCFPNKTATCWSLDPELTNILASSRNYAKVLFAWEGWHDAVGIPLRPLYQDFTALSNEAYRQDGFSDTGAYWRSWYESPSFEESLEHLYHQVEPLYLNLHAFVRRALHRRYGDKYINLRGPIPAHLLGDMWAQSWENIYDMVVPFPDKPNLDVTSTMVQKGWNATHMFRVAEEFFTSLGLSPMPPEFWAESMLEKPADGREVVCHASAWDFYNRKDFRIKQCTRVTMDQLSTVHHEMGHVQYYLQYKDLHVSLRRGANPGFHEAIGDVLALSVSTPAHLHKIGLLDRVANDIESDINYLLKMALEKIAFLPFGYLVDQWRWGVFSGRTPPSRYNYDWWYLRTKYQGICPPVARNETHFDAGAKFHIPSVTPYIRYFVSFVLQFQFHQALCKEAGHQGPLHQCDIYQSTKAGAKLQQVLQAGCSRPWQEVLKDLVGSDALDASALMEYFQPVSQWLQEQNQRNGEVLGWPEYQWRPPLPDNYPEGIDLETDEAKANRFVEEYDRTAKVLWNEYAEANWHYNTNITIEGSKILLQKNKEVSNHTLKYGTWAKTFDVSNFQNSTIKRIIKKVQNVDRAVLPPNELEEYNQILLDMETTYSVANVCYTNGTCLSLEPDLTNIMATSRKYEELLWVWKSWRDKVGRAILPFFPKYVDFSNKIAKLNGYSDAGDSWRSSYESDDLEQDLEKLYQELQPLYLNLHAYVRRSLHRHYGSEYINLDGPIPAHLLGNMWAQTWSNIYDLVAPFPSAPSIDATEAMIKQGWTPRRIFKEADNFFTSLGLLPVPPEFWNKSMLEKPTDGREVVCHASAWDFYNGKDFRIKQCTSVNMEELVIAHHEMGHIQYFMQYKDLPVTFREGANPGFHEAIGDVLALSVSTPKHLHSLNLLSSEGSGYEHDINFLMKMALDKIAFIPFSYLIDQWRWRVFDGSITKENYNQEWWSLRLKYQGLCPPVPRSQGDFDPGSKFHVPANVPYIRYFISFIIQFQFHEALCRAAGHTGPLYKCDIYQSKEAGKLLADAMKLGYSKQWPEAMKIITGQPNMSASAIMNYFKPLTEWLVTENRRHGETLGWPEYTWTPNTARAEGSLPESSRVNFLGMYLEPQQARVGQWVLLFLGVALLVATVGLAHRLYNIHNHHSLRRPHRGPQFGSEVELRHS
Method: Rats are anaesthetised with pentobarbital and placed under artificial respiration, and the average arterial pressure is measured by a catheter that has been placed in the femoral artery and is connected to a pressure sensor. The vagus nerves are divided into sections and mecamilamine (sympathetic ganglion blocker) is injected i.v. at 1.5 mg/kg. After stabilisation, angiotensin I is injected i.v. at 1.5 μg/kg.
The maximum hypertensive response to angiotensin I is measured in rats that, 60 minutes prior to anaesthesia, have received by the oral route either Senegal gum alone (control group), or the compound under test in Senegal gum. The inhibitory effect is determined as a percentage from the response to angiotensin I compared with the control group.

Row | Substance | IC50 [1] [nM] | angiotensin I inhibition (inhibition of maximum hypertensive response to angiotensin I compared with control group) [2] [%]
1 | (2S,3aS,7aS)-1-[(2S)-2-{[(1S)-1-(Ethoxycarbonyl)-butyl]-amino}-propionyl]-octahydro-1H-indole-2-carboxylic acid-{[(3-{[5-oxido-4-(phenylsulphonyl)-1,2,5-oxadiazol-3-yl]-oxy}-propionyl)-amino]-methyl}-phosphonic acid (1:1) [Example 7] | 47 | 88
2 | (2S)-2-[(3-{[5-Oxido-4-(phenylsulphonyl)-1,2,5-oxadiazol-3-yl]-oxy}-propionyl)-amino]-succinic Acid-(2S,3aS,7aS)-1-[(2S)-2-{[(1S)-1-(ethoxycarbonyl)-butyl]-amino}-propionyl]-octahydro-1H-indole-2-carboxylic Acid (1:1) [Example 1] | 48 | 85
